Results: US6914045B2, “Glycopeptide antibiotics” (Wyeth Holdings Corporation, priority 2001, dated 2005)
≈ marks a conversion by molar mass, not a printed value.

Experiments:
[1] = system: Streptococcus sp.; assay: in vitro antibacterial evaluation, MIC by broth dilution; assay type: cell-based; details: broth dilution, 18 hours at 35° C.
Procedure, shortened: (§1)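 MIC = lowest antibiotic concentration preventing visible growth; inoculum 5×10^5 CFU/mL; drug range 64-0.06 μg/mL; Muller-Hinton II […]; NCCLS M7-A2 guidance.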

[2] = system: Enterococcus sp.; assay: as above; assay type: cell-based; details: broth dilution, 18 hours at 35° C.
Procedure, shortened: as §1

[3] = system: Staphylococcus sp.; assay: as above; assay type: cell-based; details: broth dilution, 18 hours at 35° C.; for MIC Staphylococcus aureus (ATCC 29213): strain ATCC 29213; for MIC Staphylococcus aureus (GC 1131): strain GC 1131; for MIC Staphylococcus aureus (GC 3051): strain GC 3051; for MIC Staphylococcus aureus (GC 3053): strain GC 3053; for MIC Staphylococcus aureus (GC 4541): strain GC 4541; for MIC Staphylococcus aureus (GC 4542): strain GC 4542; for MIC Staphylococcus aureus-SMITH (GC 4543): strain GC 4543; for MIC Staphylococcus aureus (GC 4544): strain GC 4544; for MIC Staphylococcus aureus (GC 4545): strain GC 4545; for MIC Staphylococcus haemolyticus (GC 4546): strain GC 4546; for MIC Coagulase Negative Staphylococcus (GC 4547): strain GC 4547; for MIC Coagulase Negative Staphylococcus (GC 4548): strain GC 4548; for MIC Coagulase Negative Staphylococcus (GC 4549): strain GC 4549; for MIC Coagulase Negative Staphylococcus (GC 4551): strain GC 4551
Procedure, shortened: as §1

[4] = anatomic pathology (histopathology of heart and kidney) in mice; assay type: in vivo; details: CD-1 mice, 20 mg/kg intravenously daily for 9 days, necropsy day 10, microscopic histopathology
Protocol: Samples of tissues from necropsied mice were formalin-fixed, paraffin-embedded, sectioned, stained with hematoxylin and eosin, and examined microscopically. Histopathologic findings were recorded. These findings were subjectively graded on a scale corresponding to slight, mild, moderate, marked and severe as compared to untreated controls.

[5] = clinical pathology (serum clinical chemistry) in mice; assay type: in vivo; details: CD-1 mice, 20 mg/kg intravenously daily for 9 days, sera day 10
Protocol: 20-day-old CD-1 mice were divided into a vehicle control group (5 mice) and a treatment group (5 mice). Samples of glycopeptide antibiotics were administered at 20 mg/kg intravenously daily for 9 days.

[6] = system: Escherichia coli; assay: in vitro antibacterial evaluation, MIC by broth dilution; assay type: cell-based; details: 18 hours at 35° C.
Procedure, shortened: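 Broth dilution MIC per NCCLS M7-A2 in Mueller-Hinton II medium, inoculum 5×10^5 CFU/mL, antibiotic range 64-0.06 μg/mL. MIC taken as lowest concentration inhibiting growth.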

[7] = Enterococcus faecalis (ATCC 29212)
[8] = Enterococcus faecalis (GC 4552)
[9] = Enterococcus faecalis (GC 4553)
[10] = Enterococcus faecalis (GC 4554)
[11] = Enterococcus faecalis (GC 6189)

CC(c1ccccc1)C1NC(=O)CNC(=O)C(CO)NC(=O)C(C(O)C2CN(Cc3ccccc3-c3ccccc3)C(=N)N2C2OC(CO)C(O)C(O)C2O)NC(=O)C(C(O)C2CNC(=N)N2)NC(=O)C(Cc2ccc(OC3OC(CO)C(OC4OC(CO)C(O)C(O)C4O)C(O)C3O)cc2)NC1=O (stereo not drawn) [Example 65]
MIC Streptococcus agalactiae (GC 4564) [1]: >128 µg/mL
MIC Streptococcus pneumoniae (ATCC 6301) [1]: 128 µg/mL (≈ 87.6 µM)
MIC Streptococcus pneumoniae (GC 1894) [1]: 128 µg/mL (≈ 87.6 µM)
MIC Streptococcus pneumoniae (GC 4565) [1]: 128 µg/mL (≈ 87.6 µM)
MIC Streptococcus pyogenes (GC 4563) [1]: 128 µg/mL (≈ 87.6 µM)
MIC Streptococcus pneumoniae (ATCC 6301) ([1]; strain ATCC 6301): 128 µg/mL (≈ 87.6 µM)
MIC Streptococcus pneumoniae (GC 1894) ([1]; strain GC 1894): 128 µg/mL (≈ 87.6 µM)
MIC Streptococcus pyogenes (GC 4563) ([1]; strain GC 4563): 128 µg/mL (≈ 87.6 µM)
MIC Streptococcus agalactiae (GC 4564) ([1]; strain GC 4564): >128 µg/mL
MIC Streptococcus pneumoniae (GC 4565) ([1]; strain GC 4565): 128 µg/mL (≈ 87.6 µM)
MIC Enterococcus avium (GC 4558) ([2]; Enterococcus avium (GC 4558)): 128 µg/mL (≈ 87.6 µM)
MIC Enterococcus faecalis (ATCC 29212) [2, 7]: >128 µg/mL
MIC Enterococcus faecalis (GC 4552) [2, 8]: >128 µg/mL
MIC Enterococcus faecalis (GC 4553) [2, 9]: 128 µg/mL (≈ 87.6 µM)
MIC Enterococcus faecalis (GC 4554) [2, 10]: >128 µg/mL
MIC Enterococcus faecalis (GC 6189) [2, 11]: >128 µg/mL
MIC Enterococcus faecium (GC 2243) ([2]; Enterococcus faecium (GC 2243)): 128 µg/mL (≈ 87.6 µM)
MIC Enterococcus faecium (GC 4556) ([2]; Enterococcus faecium (GC 4556)): >128 µg/mL
MIC Enterococcus faecium (GC 4557) ([2]; Enterococcus faecium (GC 4557)): 128 µg/mL (≈ 87.6 µM)
MIC Enterococcus avium (GC 4558) [2]: 128 µg/mL (≈ 87.6 µM)
MIC Enterococcus faecalis (ATCC 29212) [2]: >128 µg/mL
MIC Enterococcus faecalis (GC 2242) [2]: >128 µg/mL
MIC Enterococcus faecalis (GC 2691) [2]: >128 µg/mL
MIC Enterococcus faecalis (GC 3059) [2]: >128 µg/mL
MIC Enterococcus faecalis (GC 4552) [2]: >128 µg/mL
MIC Enterococcus faecalis (GC 4553) [2]: 128 µg/mL (≈ 87.6 µM)
MIC Enterococcus faecalis (GC 4554) [2]: >128 µg/mL
MIC Enterococcus faecalis (GC 6189) [2]: >128 µg/mL
MIC Enterococcus faecium (GC 2243) [2]: 128 µg/mL (≈ 87.6 µM)
MIC Enterococcus faecium (GC 4556) [2]: >128 µg/mL
MIC Enterococcus faecium (GC 4557) [2]: 128 µg/mL (≈ 87.6 µM)
MIC Enterococcus faecalis (GC 2242) ([2]; strain GC 2242): >128 µg/mL
MIC Enterococcus faecalis (GC 2691) ([2]; strain GC 2691): >128 µg/mL
MIC Enterococcus faecalis (GC 3059) ([2]; strain GC 3059): >128 µg/mL
MIC Staphylococcus aureus (ATCC 29213) [3]: >128 µg/mL
MIC Staphylococcus aureus (GC 1131) [3]: >128 µg/mL
MIC Staphylococcus aureus (GC 3051) [3]: >128 µg/mL
MIC Staphylococcus aureus (GC 3053) [3]: >128 µg/mL
MIC Staphylococcus aureus (GC 4541) [3]: >128 µg/mL
MIC Staphylococcus aureus (GC 4542) [3]: >128 µg/mL
MIC Staphylococcus aureus-SMITH (GC 4543) [3]: >128 µg/mL
MIC Staphylococcus aureus (GC 4544) [3]: >128 µg/mL
MIC Staphylococcus aureus (GC 4545) [3]: >128 µg/mL
MIC Staphylococcus haemolyticus (GC 4546) [3]: >128 µg/mL
MIC Coagulase Negative Staphylococcus (GC 4547) [3]: >128 µg/mL
MIC Coagulase Negative Staphylococcus (GC 4548) [3]: >128 µg/mL
MIC Coagulase Negative Staphylococcus (GC 4549) [3]: >128 µg/mL
MIC Coagulase Negative Staphylococcus (GC 4551) [3]: >128 µg/mL
Anatomical Pathology (Day 10), Heart [4]: 0
Anatomical Pathology (Day 10), Kidney [4]: +++
Clinical Chemistry (Day 10) % of Control, ALT [5]: +196%
Clinical Chemistry (Day 10) % of Control, AST [5]: +182%
Clinical Chemistry (Day 10) % of Control, BUN [5]: +161%
MIC Escherichia coli (ATCC 25922) [6]: >128 µg/mL
MIC Escherichia coli (GC 4559) [6]: >128 µg/mL
MIC Escherichia coli (GC 4560) [6]: 32 µg/mL (≈ 21.9 µM)

CC(c1ccccc1)C1NC(=O)CNC(=O)C(CO)NC(=O)C(C(O)C2CN(CCCCCCCCCCC(=O)O)C(=N)N2C2OC(CO)C(O)C(O)C2O)NC(=O)C(C(O)C2CNC(=N)N2)NC(=O)C(Cc2ccc(OC3OC(CO)C(OC4OC(CO)C(O)C(O)C4O)C(O)C3O)cc2)NC1=O (stereo not drawn) [Example 72, Cyclo[glycyl-β-methylphenylalanyl-O-(4-O-hexopyranosylhexopyranosyl)tyrosyl-3-(2-iminoimidazolidin-4-yl)seryl-3-[1-(10-carboxydecyl)-3-hexopyranosyl-2-iminoimidazolidin-4-yl]serylseryl]]
MIC Streptococcus agalactiae (GC 4564) [1]: 128 µg/mL (≈ 86.5 µM)
MIC Streptococcus pneumoniae (ATCC 6301) [1]: 64 µg/mL (≈ 43.3 µM)
MIC Streptococcus pneumoniae (GC 1894) [1]: 16 µg/mL (≈ 10.8 µM)
MIC Streptococcus pneumoniae (GC 4565) [1]: 64 µg/mL (≈ 43.3 µM)
MIC Streptococcus pyogenes (GC 4563) [1]: 64 µg/mL (≈ 43.3 µM)
MIC Streptococcus pneumoniae (ATCC 6301) ([1]; strain ATCC 6301): 64 µg/mL (≈ 43.3 µM)
MIC Streptococcus pneumoniae (GC 1894) ([1]; strain GC 1894): 16 µg/mL (≈ 10.8 µM)
MIC Streptococcus pyogenes (GC 4563) ([1]; strain GC 4563): 64 µg/mL (≈ 43.3 µM)
MIC Streptococcus agalactiae (GC 4564) ([1]; strain GC 4564): 128 µg/mL (≈ 86.5 µM)
MIC Streptococcus pneumoniae (GC 4565) ([1]; strain GC 4565): 64 µg/mL (≈ 43.3 µM)
MIC Enterococcus avium (GC 4558) ([2]; Enterococcus avium (GC 4558)): 64 µg/mL (≈ 43.3 µM)
MIC Enterococcus faecalis (ATCC 29212) [2, 7]: >128 µg/mL
MIC Enterococcus faecalis (GC 4552) [2, 8]: >128 µg/mL
MIC Enterococcus faecalis (GC 4553) [2, 9]: 64 µg/mL (≈ 43.3 µM)
MIC Enterococcus faecalis (GC 4554) [2, 10]: >128 µg/mL
MIC Enterococcus faecalis (GC 6189) [2, 11]: >128 µg/mL
MIC Enterococcus faecium (GC 2243) ([2]; Enterococcus faecium (GC 2243)): >128 µg/mL
MIC Enterococcus faecium (GC 4556) ([2]; Enterococcus faecium (GC 4556)): >128 µg/mL
MIC Enterococcus faecium (GC 4557) ([2]; Enterococcus faecium (GC 4557)): 128 µg/mL (≈ 86.5 µM)
MIC Enterococcus avium (GC 4558) [2]: 64 µg/mL (≈ 43.3 µM)
MIC Enterococcus faecalis (ATCC 29212) [2]: >128 µg/mL
MIC Enterococcus faecalis (GC 2242) [2]: >128 µg/mL
MIC Enterococcus faecalis (GC 2691) [2]: >128 µg/mL
MIC Enterococcus faecalis (GC 3059) [2]: >128 µg/mL
MIC Enterococcus faecalis (GC 4552) [2]: >128 µg/mL
MIC Enterococcus faecalis (GC 4553) [2]: 64 µg/mL (≈ 43.3 µM)
MIC Enterococcus faecalis (GC 4554) [2]: >128 µg/mL
MIC Enterococcus faecalis (GC 6189) [2]: >128 µg/mL
MIC Enterococcus faecium (GC 2243) [2]: >128 µg/mL
MIC Enterococcus faecium (GC 4556) [2]: >128 µg/mL
MIC Enterococcus faecium (GC 4557) [2]: 128 µg/mL (≈ 86.5 µM)
MIC Enterococcus faecalis (GC 2242) ([2]; strain GC 2242): >128 µg/mL
MIC Enterococcus faecalis (GC 2691) ([2]; strain GC 2691): >128 µg/mL
MIC Enterococcus faecalis (GC 3059) ([2]; strain GC 3059): >128 µg/mL
MIC Staphylococcus aureus (ATCC 29213) [3]: >128 µg/mL
MIC Staphylococcus aureus (GC 1131) [3]: >128 µg/mL
MIC Staphylococcus aureus (GC 3051) [3]: >128 µg/mL
MIC Staphylococcus aureus (GC 3053) [3]: >128 µg/mL
MIC Staphylococcus aureus (GC 4541) [3]: >128 µg/mL
MIC Staphylococcus aureus (GC 4542) [3]: >128 µg/mL
MIC Staphylococcus aureus-SMITH (GC 4543) [3]: >128 µg/mL
MIC Staphylococcus aureus (GC 4544) [3]: >128 µg/mL
MIC Staphylococcus aureus (GC 4545) [3]: >128 µg/mL
MIC Staphylococcus haemolyticus (GC 4546) [3]: >128 µg/mL
MIC Coagulase Negative Staphylococcus (GC 4547) [3]: >128 µg/mL
MIC Coagulase Negative Staphylococcus (GC 4548) [3]: >128 µg/mL
MIC Coagulase Negative Staphylococcus (GC 4549) [3]: >128 µg/mL
MIC Coagulase Negative Staphylococcus (GC 4551) [3]: >128 µg/mL
MIC Coagulase Negative Staphylococcus (GC 6257) ([3]; strain GC 6257): >128 µg/mL
Anatomical Pathology (Day 10), Heart [4]: 0
Anatomical Pathology (Day 10), Kidney [4]: ++
Clinical Chemistry (Day 10) % of Control, BUN [5]: +122%
MIC Escherichia coli (ATCC 25922) [6]: >128 µg/mL
MIC Escherichia coli (GC 4559) [6]: >128 µg/mL
MIC Escherichia coli (GC 4560) [6]: 32 µg/mL (≈ 21.6 µM)
